# Measured values reported in ChEMBL document CHEMBL6182906, “Discovery, total synthesis, and biological evaluation of tyrcinnamins as antibacterial agents and tyrosinase activators” (Eur J Med Chem, 2025).
# Calls of active or inactive are those of the source. No cut-off for these calls is given here.
# Assays:
# [1] = tested on: Staphylococcus aureus; experiment: Antibacterial activity against Staphylococcus aureus ATCC6538 assessed as bacterial growth inhibition incubated for 16 hrs by broth microdilution assay; format: functional
# [2] = tested on: Escherichia coli; experiment: Antibacterial activity against Escherichia coli ATCC8739 assessed as bacterial growth inhibition up to 100 uM incubated for 16 hrs by broth microdilution assay; format: functional, organism-based
# [3] = target: T1, Mushroom tyrosinase (Agaricus bisporus) (UniProt O42713+Q00024+C7FF04+C7FF05); experiment: Inhibition of mushroom tyrosinase using L-DOPA as substrate up to 1 mM preincubated for 10 mins followed by substrate addition measured after 20 mins by absorbance based assay; format: protein assay; details: time 30.0 min
# [4] = tested on: Pseudomonas aeruginosa; experiment: Antibacterial activity against Pseudomonas aeruginosa ATCC27853 assessed as bacterial growth inhibition up to 100 uM incubated for 16 hrs by broth microdilution assay; format: functional, organism-based
# [5] = tested on: Bacillus subtilis; experiment: Antibacterial activity against Bacillus subtilis ATCC6633 assessed as bacterial growth inhibition incubated for 16 hrs by broth microdilution assay; format: functional
# [6] = tested on: Staphylococcus aureus; experiment: Antibacterial activity against Staphylococcus aureus ATCC6538 assessed as bacterial growth inhibition at 100 uM incubated for 12 hrs by spot assay; format: functional, organism-based
# [7] = tested on: Staphylococcus aureus; experiment: Antibacterial activity against Staphylococcus aureus ATCC6538 assessed as bacterial growth inhibition at 100 uM incubated for 12 hrs by resazurin assay; format: functional, organism-based
# [8] = target: T1, Mushroom tyrosinase (Agaricus bisporus); experiment: Activation of mushroom tyrosinase using L-DOPA as substrate at 1 mM preincubated for 10 mins followed by substrate addition measured after 20 mins by absorbance based assay; format: protein assay; details: filed as activator, time 30.0 min
# [9] = tested on: Enterococcus faecalis; experiment: Antibacterial activity against Enterococcus faecalis assessed as bacterial growth inhibition incubated for 16 hrs by broth microdilution assay; format: functional
# [10] = tested on: Staphylococcus aureus; experiment: Antibacterial activity against Staphylococcus aureus ATCC29213 assessed as bacterial growth inhibition incubated for 16 hrs by broth microdilution assay; format: functional
# [11] = tested on: Staphylococcus aureus; experiment: Antibacterial activity against methicillin-resistant Staphylococcus aureus assessed as bacterial growth inhibition incubated for 16 hrs by broth microdilution assay; format: functional
# [12] = tested on: Enterococcus faecium; experiment: Antibacterial activity against Enterococcus faecium assessed as bacterial growth inhibition incubated for 16 hrs by broth microdilution assay; format: functional
# [13] = tested on: L02; experiment: Induction of apoptosis in human LO2 cells assessed as late apoptotic cells at 50 uM incubated for 48 hrs by Annexin V-FITC/PI staining based flow cytometry (reference value: 0.044 %); format: functional
# [14] = target: T1, Mushroom tyrosinase (Agaricus bisporus); experiment: Competitive binding affinity to mushroom tyrosinase at 0.5 to 1 mM in presence of 0.25 mM L-DOPA; format: protein assay; details: filed as activator, dose 0.5-1 mM
# [15] = tested on: L02; experiment: Induction of apoptosis in human LO2 cells assessed as late apoptotic cells at 100 uM incubated for 48 hrs by Annexin V-FITC/PI staining based flow cytometry (reference value: 0.044 %); format: functional
# [16] = tested on: L02; experiment: Induction of apoptosis in human LO2 cells assessed as late apoptotic cells at 12.5 uM incubated for 48 hrs by Annexin V-FITC/PI staining based flow cytometry (reference value: 0.044 %); format: functional
# [17] = tested on: HCT-116; experiment: Cytotoxicity against human HCT-116 cells at 100 uM incubated for 72 hrs by CCK8 assay; format: toxicity, cell-based; details: hct-116, 72 h
# [18] = Hemolytic activity against chicken erythrocytes up to 100 uM incubated for 1 hr by absorbance based assay; format: toxicity, cell-based, Gallus gallus, Erythrocyte; details: read-out: Activity
# [19] = tested on: L02; experiment: Cytotoxicity against human LO2 cells at 100 uM incubated for 72 hrs by CCK8 assay; format: toxicity, cell-based; details: l02, 72 h
# [20] = tested on: L02; experiment: Induction of apoptosis in human LO2 cells assessed as viable cells at 50 uM incubated for 48 hrs by Annexin V-FITC/PI staining based flow cytometry (reference value: 98.0 %); format: functional; details: read-out: Activity
# [21] = tested on: L02; experiment: Induction of apoptosis in human LO2 cells assessed as necrotic cells at 50 uM incubated for 48 hrs by Annexin V-FITC/PI staining based flow cytometry (reference value: 1.12 %); format: functional
# [22] = tested on: L02; experiment: Induction of apoptosis in human LO2 cells assessed as early apoptotic cells at 12.5 uM incubated for 48 hrs by Annexin V-FITC/PI staining based flow cytometry (reference value: 0.85 %); format: functional
# [23] = target: T1, Mushroom tyrosinase (Agaricus bisporus); experiment: Competitive binding affinity to mushroom tyrosinase at 0.1 mM in presence of 0.25 mM L-DOPA; format: protein assay
# [24] = tested on: L02; experiment: Induction of apoptosis in human LO2 cells assessed as early apoptotic cells at 100 uM incubated for 48 hrs by Annexin V-FITC/PI staining based flow cytometry (reference value: 0.85 %); format: functional
# [25] = tested on: L02; experiment: Induction of apoptosis in human LO2 cells assessed as viable cells at 100 uM incubated for 48 hrs by Annexin V-FITC/PI staining based flow cytometry (reference value: 98.0 %); format: functional; details: read-out: Activity
# [26] = tested on: L02; experiment: Induction of apoptosis in human LO2 cells assessed as viable cells at 12.5 uM incubated for 48 hrs by Annexin V-FITC/PI staining based flow cytometry (reference value: 98.0 %); format: functional; details: read-out: Activity
# [27] = tested on: L02; experiment: Induction of apoptosis in human LO2 cells assessed as necrotic cells at 100 uM incubated for 48 hrs by Annexin V-FITC/PI staining based flow cytometry (reference value: 1.12 %); format: functional
# [28] = tested on: L02; experiment: Induction of apoptosis in human LO2 cells assessed as early apoptotic cells at 50 uM incubated for 48 hrs by Annexin V-FITC/PI staining based flow cytometry (reference value: 0.85 %); format: functional
# [29] = tested on: L02; experiment: Induction of apoptosis in human LO2 cells assessed as necrotic cells at 12.5 uM incubated for 48 hrs by Annexin V-FITC/PI staining based flow cytometry (reference value: 1.12 %); format: functional
# [30] = tested on: Staphylococcus epidermidis; experiment: Antibacterial activity against Staphylococcus epidermidis assessed as bacterial growth inhibition incubated for 16 hrs by broth microdilution assay; format: functional
# [31] = tested on: HaCaT; experiment: Cytotoxicity against human HaCaT cells at 100 uM incubated for 72 hrs by CCK8 assay; format: toxicity, cell-based
# [32] = Hemolytic activity against chicken erythrocytes at 50 uM incubated for 1 hr by absorbance based assay; format: toxicity, cell-based, Gallus gallus, Erythrocyte; details: read-out: Activity
compound,measurement,setting,value
COC(=O)[C@H](Cc1ccc(O)cc1)NC(=O)/C=C/c1ccccc1OC,MIC,[1],100 µM
same,inhibition,[2],inactive
same,inhibition,[3],Active
same,inhibition,[4],inactive
same,MIC,[5],100 µM
CCC/C=C\c1ccccc1/C=C/C(=O)O,MIC,[1],> 100 µM
same,inhibition,[2],inactive
same,inhibition,[4],inactive
same,MIC,[5],> 100 µM
CCC/C=C\c1ccccc1/C=C/C(=O)N[C@H](Cc1ccc(O)cc1)C(=O)O,MIC,[1],> 100 µM
same,inhibition,[2],inactive
same,inhibition,[3],inactive
same,inhibition,[4],inactive
same,inhibition,[6],inactive
same,inhibition,[7],inactive
same,MIC,[5],> 100 µM
COC(=O)[C@H](Cc1ccc(O)cc1)NC(=O)/C=C/c1ccccc1F,MIC,[1],> 100 µM
same,inhibition,[2],inactive
same,inhibition,[3],inactive
same,inhibition,[4],inactive
same,MIC,[5],100 µM
COC(=O)[C@H](Cc1ccc(O)cc1)NC(=O)/C=C/c1ccccc1C,MIC,[1],> 100 µM
same,inhibition,[2],inactive
same,inhibition,[3],inactive
same,inhibition,[4],inactive
same,Emax,[8],> 300%
same,MIC,[5],100 µM
CCC/C=C\c1ccccc1/C=C/C(=O)N[C@@H](Cc1ccccc1)C(=O)OC,MIC,[1],> 100 µM
same,inhibition,[2],inactive
same,inhibition,[4],inactive
same,MIC,[5],> 100 µM
CCC/C=C\c1ccccc1/C=C/C(=O)N[C@@H](Cc1c[nH]c2ccccc12)C(=O)OC,MIC,[1],> 100 µM
same,inhibition,[2],inactive
same,inhibition,[4],inactive
same,MIC,[5],> 100 µM
CN[C@H](CC(C)C)C(=O)N[C@H]1C(=O)N[C@@H](CC(N)=O)C(=O)N[C@H]2C(=O)N[C@H]3C(=O)N[C@H](C(=O)N[C@H](C(=O)O)c4cc(O)cc(O)c4-c4cc3ccc4O)[C@H](O)c3ccc(c(Cl)c3)Oc3cc2cc(c3O[C@@H]2O[C@H](CO)[C@@H](O)[C@H](O)[C@H]2O[C@H]2C[C@](C)(N)[C@H](O)[C@H](C)O2)Oc2ccc(cc2Cl)[C@H]1O [VANCOMYCIN],MIC,[9],2.8 µM
same,MIC,[10],1.4 µM
same,MIC,[11],2.8 µM
same,MIC,[12],2.8 µM
CCC/C=C\c1ccccc1/C=C/C(=O)N[C@@H](C)C(=O)OC,MIC,[1],> 100 µM
same,inhibition,[2],inactive
same,inhibition,[4],inactive
same,MIC,[5],100 µM
CCC/C=C\c1ccccc1/C=C/C(=O)N[C@@H](Cc1ccc(O)cc1)C(=O)OC,MIC,[1],12.5 µM
same,inhibition,[2],inactive
same,Activity,[13],0.024%
same,inhibition,[3],inactive
same,Activity,[14],Active
same,inhibition,[4],inactive
same,Activity,[15],0.034%
same,Activity,[16],0.041%
same,Activity,[17],Non-toxic
same,MIC,[9],20 µM
same,MIC,[10],20 µM
same,"hemolysis at 1 h, up to 100 µM",[18],< 5%
same,Activity,[19],Non-toxic
same,viability at 50 µM,[20],97.9%
same,Activity,[21],1.33%
same,MIC,[11],20 µM
same,Activity,[22],0.2%
same,Activity,[23],inactive
same,Activity,[24],0.94%
same,Emax,[8],> 300%
same,viability at 100 µM,[25],97.7%
same,viability at 12.5 µM,[26],98.5%
same,Activity,[27],1.34%
same,Activity,[28],0.74%
same,Activity,[29],1.23%
same,MIC,[30],> 40 µM
same,MIC,[12],20 µM
same,Activity,[31],Non-toxic
same,MIC,[5],12.5 µM
COC(=O)[C@H](Cc1ccc(O)cc1)NC(=O)/C=C/c1ccccc1C(F)(F)F,MIC,[1],100 µM
same,inhibition,[2],inactive
same,inhibition,[3],inactive
same,inhibition,[4],inactive
same,MIC,[5],> 100 µM
CCC/C=C\c1ccccc1/C=C/C(=O)N[C@@H](Cc1ccc(O)cc1)C(=O)O,MIC,[1],> 100 µM
same,inhibition,[2],inactive
same,inhibition,[3],inactive
same,inhibition,[4],inactive
same,inhibition,[6],inactive
same,inhibition,[7],inactive
same,MIC,[5],> 100 µM
COC(=O)[C@H](Cc1ccc(O)cc1)NC(=O)/C=C/c1ccccc1,MIC,[1],> 100 µM
same,inhibition,[2],inactive
same,inhibition,[3],inactive
same,inhibition,[4],inactive
same,MIC,[5],> 100 µM
CCC/C=C\c1ccccc1/C=C/C(=O)N[C@H](Cc1ccc(O)cc1)C(=O)OC,MIC,[1],12.5 µM
same,inhibition,[2],inactive
same,inhibition,[3],inactive
same,inhibition,[4],inactive
same,"hemolysis at 1 h, 50 µM",[32],> 5%
same,Activity,[17],Toxic
same,Activity,[19],Toxic
same,Emax,[8],> 300%
same,Activity,[31],Toxic
same,MIC,[5],12.5 µM
CC1(C)S[C@@H]2[C@H](NC(=O)Cc3ccccc3)C(=O)N2[C@H]1C(=O)O [PENICILLIN G],MIC,[1],0.05 µM
same,MIC,[5],10 µM
COC(=O)[C@H](Cc1ccc(O)cc1)NC(=O)/C=C/c1ccccc1Br,MIC,[1],100 µM
same,inhibition,[2],inactive
same,inhibition,[3],inactive
same,inhibition,[4],inactive
same,MIC,[5],100 µM
